These results are taken from US20100092560A1, “REDUCED COENZYME Q10-CONTAINING PARTICULATE COMPOSITION AND METHOD FOR PRODUCING THE SAME” (KANEKA CORPORATION, priority 2007, published 2010).

This series can be described thus: Preservation test: residual ratio of reduced coenzyme Q10 (oxidative stability, HPLC). Type of series: physicochemical. Particulars: powder preserved for 30 days at 40° C. under shading conditions. The protocol:
The purity of reduced coenzyme Q10, the weight ratio (%) of oxidized coenzyme Q10 and reduced coenzyme Q10 and the like were determined by the following HPLC analysis. The HPLC analysis conditions are described below.
column: SYMMETRY C18 (manufactured by Waters) 250 mm (length) 4.6 mm (inner diameter), mobile phase; C2H5OH/CH3OH=4/3(v/v), detection wavelength; 210 nm, flow rate; 1.0 ml/min, retention time of reduced coenzyme Q10; 9.1 min, retention time of oxidized coenzyme Q10; 13.3 min.

The structures appear in SMILES notation.

Turning to `COc1c(O)c(C)c(C/C=C(\C)CC/C=C(\C)CC/C=C(\C)CC/C=C(\C)CC/C=C(\C)CC/C=C(\C)CC/C=C(\C)CC/C=C(\C)CC/C=C(\C)CCC=C(C)C)c(O)c1OC` [reduced coenzyme Q10 powder, reduced coenzyme Q10], the “residual ratio of reduced coenzyme Q10” value was found to be 28%.
